Entries after “also recorded” stand apart in the source; their conditions may differ. Values belong to the substance of their own block, whether it stands above or below them.
Key:
Fc region of IgG = conditions: ref [17],[21] (b5); ref [15],[16],[17]; cited from earlier work
From the text: (§1) Nowadays, numerous synthetic peptides are designed to specifically recognize and bind the conserved fragment crystallizable (Fc) region of IgG [18, 19], which is one of the most widely utilized types of antibodies in bioanalytical analysis. The Fc binding peptides made excellent exposure of the fragment antigen binding (Fab) region of IgG and thus maintained an easy approachability to the antigen-binding sites of the immobilized antibodies.

[1] = biological target: heptapeptide HWRGWVC (HC7) coupled to poly(glycidyl methacrylate) nanospheres (PGMA-HC7); assay: batch adsorption isotherm (Langmuir fit); bovine IgG 0.4-4 mg/mL added to PGMA-HC7 nanosphere suspension, physiological buffer, 37 °C, 5 min; supernatant IgG read at 280 nm after centrifugation, adsorbed amount by mass balance
IgG = conditions: ref [22]; cited from earlier work
From the text: as §1

Substance: HWRGWV [hexapeptide ligand that could specifically recognize the Fc region of the antibody]
Fc selectivity relative to protein A / protein G (Fc region of IgG): comparable to protein A but not comparable to protein G; also recorded: comparable to protein A

Kd [1]: 5.8 µM
Substance: bovine immunoglobulin G (IgG) (antibody)

Substance: HWRGWVC [HC7, heptapeptide ligand HWRGWVC, 95% purity, synthesized by GL Biochem Ltd]
affinity for IgG relative to HWRGWV (IgG): two orders of magnitude stronger
